biological target: T1, serotonin 5-HT1 A receptor (Rattus norvegicus, UniProt P19327); assay: displacement of [^3 H]8-OHDPAT from the 5-HT1 A serotonin receptors in rat hippocampal membrane homogenate; assay type: binding
T1 construct: rat hippocampal membrane homogenate; from tissue; host or cells: rat hippocampus (membrane homogenate)
T1 sequence (P19327 1-422): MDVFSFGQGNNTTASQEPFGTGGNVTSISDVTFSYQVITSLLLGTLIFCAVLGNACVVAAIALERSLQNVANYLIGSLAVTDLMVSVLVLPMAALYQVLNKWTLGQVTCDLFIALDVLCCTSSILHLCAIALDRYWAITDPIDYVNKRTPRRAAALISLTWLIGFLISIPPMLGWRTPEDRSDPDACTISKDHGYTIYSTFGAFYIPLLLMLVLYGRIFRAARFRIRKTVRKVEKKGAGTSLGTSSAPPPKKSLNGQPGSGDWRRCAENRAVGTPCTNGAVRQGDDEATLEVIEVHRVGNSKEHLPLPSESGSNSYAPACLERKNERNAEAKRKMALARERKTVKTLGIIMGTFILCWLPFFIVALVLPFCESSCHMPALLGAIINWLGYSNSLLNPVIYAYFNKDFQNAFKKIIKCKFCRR
Description: High affinity for the serotonin 5-HT1 A receptor was established by testing the claimed compound's ability to displace [^3 H]8-OHDPAT (dipropylaminotetralin) from the 5-HT1 A serotonin receptors in rat hippocampal membrane homogenate following the procedure of B. S. Alexander and M. D. Wood, J. Pharm. Pharmacol. 1988, 40, 888-891.

Row | IC50 [nM] | Structure (SMILES)
1 | 2 | O=C(N[C@@H](CN1CCN(c2cccc3[nH]ccc23)CC1)c1ccccc1)C1CCCCC1 [Example 1]
2 | 8.3 | O=C(N[C@H](Cc1ccccc1)CN1CCN(c2cccc3[nH]ccc23)CC1)C1CCCCC1 [Example 4, (R)- Cyclohexane Carboxylic Acid 1-Phenylmethyl-2-[1-[4-(4-indolyl)piperazinyl]] ethylamide]
3 | 35.5 | CC(=O)N[C@@H](CN1CCN(c2cccc3[nH]ccc23)CC1)c1ccccc1 [Example 2]
4 | 5 | O=C(N[C@@H](CN1CCN(c2cccc3[nH]ccc23)CC1)c1ccccc1)c1ccccc1 [Example 3]

— US5486518A, “4-indolylpiperazinyl derivatives” (American Home Products Corporation, priority 1995, dated 1996)
